Assay results published in BindingDB's records for doi:10.3109/14756360903389864 (Quaid-I-Azam University, 2010).

target: Urease (Canavalia ensiformis, UniProt P07374); assay: Urease Inhibition Assay
Sequence (P07374 whole entry): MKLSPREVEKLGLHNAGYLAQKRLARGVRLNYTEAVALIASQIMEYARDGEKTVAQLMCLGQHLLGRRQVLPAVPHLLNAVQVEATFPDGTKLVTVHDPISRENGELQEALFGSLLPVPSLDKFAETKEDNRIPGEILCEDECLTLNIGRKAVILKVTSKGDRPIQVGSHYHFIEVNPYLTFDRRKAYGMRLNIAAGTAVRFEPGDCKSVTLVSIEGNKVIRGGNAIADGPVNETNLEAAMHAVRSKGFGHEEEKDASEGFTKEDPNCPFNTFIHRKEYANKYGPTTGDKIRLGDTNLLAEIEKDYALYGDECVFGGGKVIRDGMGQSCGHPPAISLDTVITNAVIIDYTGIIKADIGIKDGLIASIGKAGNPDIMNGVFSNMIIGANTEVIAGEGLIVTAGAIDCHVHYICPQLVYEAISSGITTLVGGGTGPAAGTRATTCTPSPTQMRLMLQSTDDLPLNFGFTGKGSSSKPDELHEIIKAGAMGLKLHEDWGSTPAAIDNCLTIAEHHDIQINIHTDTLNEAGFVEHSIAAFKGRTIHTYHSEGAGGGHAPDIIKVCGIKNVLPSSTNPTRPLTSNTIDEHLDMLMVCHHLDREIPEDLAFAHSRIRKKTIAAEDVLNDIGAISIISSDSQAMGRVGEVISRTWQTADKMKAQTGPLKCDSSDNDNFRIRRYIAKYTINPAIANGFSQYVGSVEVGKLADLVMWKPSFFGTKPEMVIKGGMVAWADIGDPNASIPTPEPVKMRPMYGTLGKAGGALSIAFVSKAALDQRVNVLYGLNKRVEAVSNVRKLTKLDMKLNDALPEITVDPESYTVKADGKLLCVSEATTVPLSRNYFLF

Compound	IC50
OC(c1ccccc1)c1n[nH]c(=S)n1-c1ccc(Br)cc1 (stereo unspecified) [5-(Hydroxybenzyl)-4-(4-bromophenyl)-2H-1,2,4-triazole-3-thione (5a)]	32 µM
O=[N+]([O-])c1ccc(-n2c(C(O)c3ccccc3)n[nH]c2=S)cc1 (stereo unspecified) [5-(Hydroxybenzyl)-4-(4-nitrophenyl)-2H-1,2,4-triazole-3-thione (5e)]	132 µM
O=[N+]([O-])c1ccc(Nc2nnc(C(O)c3ccccc3)o2)cc1 (stereo unspecified) [5-(Hydroxybenzyl)-2-(4-nitrophenyl)amino-1,3,4-oxadiazole (4e)]	80.3 µM
Cc1ccc(-n2c(C(O)c3ccccc3)n[nH]c2=S)cc1 (stereo unspecified) [5-(Hydroxybenzyl)-4-(4-methylphenyl)-2H-1,2,4-triazole-3-thione (5d)]	16.7 µM
OC(c1ccccc1)c1n[nH]c(=S)n1-c1ccc(Cl)cc1 (stereo unspecified) [5-(Hydroxybenzyl)-4-(4-chlorophenyl)-2H-1,2,4-triazole-3-thione (5b)]	18.9 µM
Cc1ccc(Nc2nnc(C(O)c3ccccc3)o2)cc1 (stereo unspecified) [5-(Hydroxybenzyl)-2-(4-methylphenyl)amino-1,3,4-oxadiazole (4d)]	16.1 µM
